Assay results taken from PubChem BioAssay AID1963874 (Molecular Pharmacology Branch, DTP, NCI, 2024).

System: 253994-281-T-J1-PDC KRAS-mutant spheroids with HUVEC/MSC, viability
Assay: Anticancer human tumor 253994-281-T-J1-PDC patient-derived colorectal carcinoma cell line growth inhibition [KRAS2]
Conditions: for IC50: curve of first compound; for viability, T/C: stronger effect = lower value
Method in brief: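 KRAS-mutant tumor cells were grown as spheroids with HUVEC endothelial cells and human MSCs as stroma. Targeted agents were tested alone and with KRAS pathway inhibitors. Doses started at or near clinical Cmax, or 10 microM, descending half-log.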

[1] = second compound 0.1 µM, first compound 0.0316 µM
[2] = second compound 0.1 µM, first compound 0.1 µM
[3] = second compound 0.1 µM, first compound 0.316 µM
[4] = second compound 0.1 µM, first compound 1 µM
[5] = second compound 0.1 µM, first compound 3.16 µM
[6] = second compound 0.316 µM, first compound 0.0316 µM
[7] = second compound 0.316 µM, first compound 0.1 µM
[8] = second compound 0.316 µM, first compound 0.316 µM
[9] = second compound 0.316 µM, first compound 1 µM
[10] = second compound 0.316 µM, first compound 3.16 µM
[11] = second compound 1 µM, first compound 0.0316 µM
[12] = second compound 1 µM, first compound 0.1 µM
[13] = second compound 1 µM, first compound 0.316 µM
[14] = second compound 1 µM, first compound 1 µM
[15] = second compound 1 µM, first compound 3.16 µM
[16] = second compound 3.16 µM, first compound 0.0316 µM
[17] = second compound 3.16 µM, first compound 0.1 µM
[18] = second compound 3.16 µM, first compound 0.316 µM
[19] = second compound 3.16 µM, first compound 1 µM
[20] = second compound 3.16 µM, first compound 3.16 µM
[21] = second compound 10 µM, first compound 0.0316 µM
[22] = second compound 10 µM, first compound 0.1 µM
[23] = second compound 10 µM, first compound 0.316 µM
[24] = second compound 10 µM, first compound 1 µM
[25] = second compound 10 µM, first compound 3.16 µM
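Further: spheroids exposed to agents for seven days before readout.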
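Wherever viability, T/C is given: percent of DMSO vehicle control viability.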

Row | SMILES | IC50 (second compound 0.1 µM) [nM] | IC50 (second compound 0.316 µM) [nM] | IC50 (second compound 1 µM) [nM] | IC50 (second compound 3.16 µM) [nM] | IC50 (second compound 10 µM) [nM] | viability, T/C [1] [%] | viability, T/C [2] [%] | viability, T/C [3] [%] | viability, T/C [4] [%] | viability, T/C [5] [%] | viability, T/C [6] [%] | viability, T/C [7] [%] | viability, T/C [8] [%] | viability, T/C [9] [%] | viability, T/C [10] [%] | viability, T/C [11] [%] | viability, T/C [12] [%] | viability, T/C [13] [%] | viability, T/C [14] [%] | viability, T/C [15] [%] | other results
1 | CC1COCCN1c1cc(-c2ccnn2C)c2ccnc(-c3ccn[nH]3)c2n1 (stereo not given) + COc1cc2nc(C)nc(NC(C)c3cc(N)cc(C(F)(F)F)c3)c2cc1OC1CCOC1 | > 3160 | 169 | 151 | 99.6 | 96.2 | 72.8 | 65.3 | 47.9 | 52.5 | 55.1 | 83.2 | 55.2 | 39.1 | 37.6 | 55.6 | 74.8 | 56.5 | 35 | 40.4 | 54.5 | viability, T/C (second compound 0.1 µM, first compound 0.01 µM): 95.2%; viability, T/C (second compound 0.316 µM, first compound 0.01 µM): 88.4%; viability, T/C (second compound 1 µM, first compound 0.01 µM): 92.5%; viability, T/C (second compound 3.16 µM, first compound 0.01 µM): 80.6%; viability, T/C [16]: 82.5%; viability, T/C [17]: 49.9%; viability, T/C [18]: 37.2%; viability, T/C [19]: 39%; viability, T/C [20]: 49.2%; viability, T/C (second compound 10 µM, first compound 0.01 µM): 75.7%; viability, T/C [21]: 74.6%; viability, T/C [22]: 49.2%; viability, T/C [23]: 31.8%; viability, T/C [24]: 41%; viability, T/C [25]: 42.4%
2 | Cn1nccc1Nc1nccc(-c2cc3c(s2)C(C)(C)N(CCN2CCOCC2)C3=O)n1 + COc1cc2nc(C)nc(NC(C)c3cc(N)cc(C(F)(F)F)c3)c2cc1OC1CCOC1 | 1100 | 850 | 753 | 507 | 340 | 107 | 89.5 | 85.2 | 52.4 | 24.8 | 92 | 96.6 | 78 | 45.9 | 22.8 | 92.3 | 92.1 | 72.9 | 41.5 | 27 | viability, T/C (second compound 0.1 µM, first compound 10 µM): 19.6%; viability, T/C (second compound 0.316 µM, first compound 10 µM): 19%; viability, T/C (second compound 1 µM, first compound 10 µM): 17.9%; viability, T/C [16]: 96.5%; viability, T/C [17]: 77.5%; viability, T/C [18]: 62%; viability, T/C [19]: 36.9%; viability, T/C [20]: 18.3%; viability, T/C (second compound 3.16 µM, first compound 10 µM): 14.2%; viability, T/C [21]: 78.7%; viability, T/C [22]: 68.8%; viability, T/C [23]: 54%; viability, T/C [24]: 16.9%; viability, T/C [25]: 7.12%; viability, T/C (second compound 10 µM, first compound 10 µM): 2.36%
